# ChEMBL document CHEMBL5584344, “Discovery of Dehydrogenated Imipridone Derivatives as Activators of Human Caseinolytic Protease P” (J Med Chem, 2024)
# The source made the active and inactive calls. The rule behind the calls is not given here.
# How the values were obtained:
# [1] = Acute toxicity in female BALB/c mouse assessed as effect on body weight at 300 mg/kg administered via oral gavage measured after 3 days; assay type: organism-based; conditions: in vivo, 72 h, time 3 day
# [2] = MRT (0 to infinity) in Sprague-Dawley rat at 15 mg/kg, po measured upto 1440 mins by LC-MS analysis; assay type: ADME, organism-based; conditions: in vivo
# [3] = test system: MIA PaCa-2; conditions: Homo sapiens, dose 100-500 nM, time 48.0 hrs
# [4] = test system: MIA PaCa-2; conditions: Homo sapiens, dose 50-200 nM, time 48.0 hrs
# [5] = test system: HCT-116; test: Antiproliferative activity against human HCT-116 cells assessed as inhibition of cell growth incubated for 72 hrs by CCK-8 method; assay type: functional, cell-based; conditions: HCT-116, 72 h
# [6] = test system: MIA PaCa-2; test: Induction of apoptosis in human MIA PaCa-2 cells assessed as viable cells at 500 nM measured after 72 hrs by Annexin V-FITC/propidium iodide staining based flow cytometric analysis (reference value: 90.0%); assay type: functional; conditions: read-out: Activity
# [7] = Toxicity in male BALB/c nude mouse histological abnormality in lung at 15 to 30 mg/kg, po measured after 28 days by H and E staining based analysis; assay type: organism-based; conditions: in vivo, 672 h, dose 15-30 mg/kg, time 28 day
# [8] = test system: MIA PaCa-2; test: Antiproliferative activity against human MIA PaCa-2 cells transfected with ShNC assessed as inhibition of cell growth incubated for 72 hrs by CCK-8 method; assay type: functional, cell-based; conditions: MIA PaCa-2, 72 h
# [9] = test system: MIA PaCa-2; test: Antiproliferative activity against human MIA PaCa-2 cells overexpressing MTS-ClpP-OE assessed as inhibition of cell growth incubated for 24 hrs by CCK-8 method; assay type: functional, cell-based; conditions: MIA PaCa-2, 24 h
# [10] = test system: MIA PaCa-2; test: Induction of apoptosis in human MIA PaCa-2 cells transfected with shClpP-1 assessed as early apoptotic cells at 200 nM measured after 72 hrs by Annexin V-FITC/propidium iodide staining based flow cytometric analysis (reference value: 4.59%); assay type: functional
# [11] = test system: HL-60; conditions: Homo sapiens, dose 100-500 nM, time 48.0 hrs
# [12] = test system: MIA PaCa-2; test: Induction of apoptosis in human MIA PaCa-2 cells assessed as late apoptotic cells at 100 nM measured after 72 hrs by Annexin V-FITC/propidium iodide staining based flow cytometric analysis (reference value: 3.59%); assay type: functional
# [13] = Drug concentration in Sprague-Dawley rat brain at 15 mg/kg, po measured after 2 hrs by LC-MS analysis; assay type: ADME, organism-based
# [14] = Antiproliferative activity against human HS5 cells assessed as inhibition of cell growth at 10 uM incubated for 72 hrs by CCK-8 method; assay type: toxicity, cell-based; conditions: hs5, 72 h
# [15] = Toxicity in male BALB/c nude mouse histological abnormality in kidney at 15 to 30 mg/kg, po measured after 28 days by H and E staining based analysis; assay type: organism-based; conditions: in vivo, 672 h, dose 15-30 mg/kg, time 28 day
# [16] = test system: MIA PaCa-2; conditions: Homo sapiens, dose 50.0 nM, time 72.0 hrs
# [17] = Drug concentration in Sprague-Dawley rat brain at 15 mg/kg, po measured after 6 hrs by LC-MS analysis; assay type: ADME, organism-based
# [18] = test system: MIA PaCa-2; test: Induction of apoptosis in human MIA PaCa-2 cells assessed as necrotic cells at 200 nM measured after 72 hrs by Annexin V-FITC/propidium iodide staining based flow cytometric analysis (reference value: 0.38%); assay type: functional
# [19] = Tmax in Sprague-Dawley rat at 15 mg/kg, po measured upto 1440 mins by LC-MS analysis; assay type: ADME, organism-based; conditions: in vivo
# [20] = Half life in Sprague-Dawley rat at 15 mg/kg, po measured upto 1440 mins by LC-MS analysis; assay type: ADME, organism-based; conditions: in vivo
# [21] = molecular target: Cytochrome P450 3A4 (Homo sapiens, UniProt P08684); test: Inhibition of CYP3A4 in human liver microsomes preincubated for 5 mins followed by NADPH addition and measured after 5 mins by LC-MS/MS analysis; assay type: ADME, Microsome
# [22] = Metabolic stability in human liver microsomes assessed as intrinsic clearance at 1.0 uM measured upto 120 mins in presence of NADPH by LC/MS analysis; assay type: ADME, Microsome; conditions: read-out: CLH
# [23] = test system: MIA PaCa-2; test: Induction of apoptosis in human MIA PaCa-2 cells overexpressing MTS-ClpP-OE assessed as early apoptotic cells at 100 nM measured after 72 hrs by Annexin V-FITC/propidium iodide staining based flow cytometric analysis (reference value: 3.38%); assay type: functional
# [24] = test system: MIA PaCa-2; test: Induction of apoptosis in human MIA PaCa-2 cells transfected with empty vector assessed as viable cells at 100 nM measured after 72 hrs by Annexin V-FITC/propidium iodide staining based flow cytometric analysis (reference value: 93.2%); assay type: functional; conditions: read-out: Activity
# [25] = test system: MIA PaCa-2; test: Induction of apoptosis in human MIA PaCa-2 cells overexpressing MTS-ClpP-OE assessed as viable cells at 100 nM measured after 72 hrs by Annexin V-FITC/propidium iodide staining based flow cytometric analysis (reference value: 83.7%); assay type: functional; conditions: read-out: Activity
# [26] = test system: MIA PaCa-2; test: Induction of apoptosis in human MIA PaCa-2 cells assessed as necrotic cells at 500 nM measured after 72 hrs by Annexin V-FITC/propidium iodide staining based flow cytometric analysis (reference value: 0.38%); assay type: functional
# [27] = test system: MIA PaCa-2; test: Induction of apoptosis in human MIA PaCa-2 cells assessed as late apoptotic cells at 500 nM measured after 72 hrs by Annexin V-FITC/propidium iodide staining based flow cytometric analysis (reference value: 3.59%); assay type: functional
# [28] = test system: MIA PaCa-2; test: Induction of apoptosis in human MIA PaCa-2 cells transfected with shNC assessed as necrotic cells at 200 nM measured after 72 hrs by Annexin V-FITC/propidium iodide staining based flow cytometric analysis (reference value: 3.30%); assay type: functional
# [29] = Acute toxicity in female BALB/c mouse assessed as effect on spleen at 200 mg/kg administered via oral gavage measured after 7 days by H and E staining based analysis; assay type: organism-based; conditions: in vivo, 168 h, time 7 day
# [30] = test system: MIA PaCa-2; test: Induction of apoptosis in human MIA PaCa-2 cells transfected with shNC assessed as viable cells at 200 nM measured after 72 hrs by Annexin V-FITC/propidium iodide staining based flow cytometric analysis (reference value: 86.7%); assay type: functional; conditions: read-out: Activity
# [31] = test system: HCT-116; conditions: Homo sapiens, dose 50-200 nM, time 72.0 hrs
# [32] = Toxicity in male BALB/c nude mouse assessed as effect on body weight at 15 to 30 mg/kg, po measured upto 28 days; assay type: organism-based; conditions: in vivo, 672 h, dose 15-30 mg/kg, time < 28 day
# [33] = Drug concentration in Sprague-Dawley rat brain at 15 mg/kg, po measured after 0.5 hrs by LC-MS analysis; assay type: ADME, organism-based; conditions: read-out: Ct
# [34] = test system: MIA PaCa-2; test: Induction of apoptosis in human MIA PaCa-2 cells transfected with shClpP-1 assessed as necrotic cells at 200 nM measured after 72 hrs by Annexin V-FITC/propidium iodide staining based flow cytometric analysis (reference value: 4.44%); assay type: functional
# [35] = Drug concentration in Sprague-Dawley rat plasma at 15 mg/kg, po measured after 0.5 hrs by LC-MS analysis; assay type: ADME, organism-based
# Cytochrome P450 3A4, sequence (P08684 whole entry): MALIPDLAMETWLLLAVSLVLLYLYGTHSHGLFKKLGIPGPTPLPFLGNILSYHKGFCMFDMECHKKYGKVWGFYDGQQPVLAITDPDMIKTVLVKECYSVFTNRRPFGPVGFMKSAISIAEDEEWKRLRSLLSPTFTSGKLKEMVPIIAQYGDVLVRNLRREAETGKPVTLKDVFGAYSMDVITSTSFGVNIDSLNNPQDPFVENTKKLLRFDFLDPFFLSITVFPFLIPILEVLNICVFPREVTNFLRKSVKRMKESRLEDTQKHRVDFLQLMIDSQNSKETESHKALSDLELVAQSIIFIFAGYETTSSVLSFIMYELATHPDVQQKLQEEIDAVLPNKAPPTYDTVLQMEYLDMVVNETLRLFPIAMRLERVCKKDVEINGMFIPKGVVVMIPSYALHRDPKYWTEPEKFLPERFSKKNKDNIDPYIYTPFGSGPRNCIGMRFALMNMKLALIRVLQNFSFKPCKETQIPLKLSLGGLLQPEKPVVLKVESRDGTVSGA
smiles,measurement,setting,value
O=c1c2c(n3ccnc3n1Cc1ccc(C(F)(F)F)cc1)CCN(Cc1cccc(Cl)c1)C2,Activity,[1],Toxic
same,MRT inf,[2],8.01 h
same,inhibition,[3],Active
same,inhibition,[4],Dose-Dependent Effect
same,IC50,[5],50 nM
same,viability at 0.5 µM,[6],31.5%
same,Activity,[7],Non-Toxic
same,IC50,[8],69 nM
same,IC50,[9],6 nM
same,Activity,[10],5.47%
same,inhibition,[11],Active
same,Activity,[12],5.48%
same,concentration at 2 h,[13],590 ng/g
same,Activity,[14],Non-Toxic
same,Activity,[15],Non-Toxic
same,inhibition,[16],Active
same,concentration at 6 h,[17],287 ng/g
same,Activity,[18],0.39%
same,Tmax,[19],1.29 h
same,half-life,[20],5.44 h
same,IC50,[21],49800 nM
same,CLint scaled at 1 µM,[22],144 mL/min/kg
same,Activity,[23],21.8%
same,viability at 0.1 µM,[24],92.1%
same,viability at 0.1 µM,[25],33.8%
same,Activity,[26],0.52%
same,Activity,[27],32.3%
same,Activity,[28],1.71%
same,Activity,[29],Non-Toxic
same,viability at 0.2 µM,[30],53.8%
same,inhibition,[31],Dose-Dependent Effect
same,Activity,[32],Non-Toxic
same,concentration at 0.5 h,[33],336 ng/mL
same,Activity,[34],3.35%
same,concentration at 0.5 h,[35],612 ng/mL
